Measured values: patent publication US9676715B2, “Bis-indolic derivatives, a process for preparing the same and their uses as a drug” (UNIVERSITE JOSEPH FOURIER, priority 2011, dated 2017)
Converted amounts (≈) assume the structure as drawn.

Tests used:
[1] = tested on: S. pneumoniae ATCC 6303; experiment: MIC, microdilution method (9.1); assay type: cell-based, Streptococcus pneumoniae; conditions: Streptococcus pneumoniae, ATCC6303, 10% sheep blood, 5% CO2, 18 h, read-out: MIC
Outline: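 Standard CLSI broth microdilution. Test range 0.50-128 mg/L (final), doubling steps.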

[2] = tested on: E. faecalis ATCC 29212; experiment: MIC, microdilution method (9.1); assay type: cell-based, Enterococcus faecalis; conditions: Enterococcus faecalis, ATCC29212, 18 h, read-out: MIC
Outline: (§1)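 Mueller Hinton broth cultures at 5×10^5 CFU/ml final were exposed to doubling concentrations of compound from 0.50 to 128 mg/L. Incubation: 37° C., ambient atmosphere. Method per CLSI M07-A8; blood supplement and CO2 reserved for fastidious organisms.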

[3] = tested on: S. aureus ATCC 25923; experiment: Mutation frequency; assay type: cell-based, Staphylococcus aureus
Experimental: The mutation frequency is the number of individuals in a population with a particular mutation. In the present case, the mutation frequency was determined for a specific bacterial species and a specific indolic compound. Mueller Hinton agar plates containing various indolic compound concentrations, i.e., MIC×2, MIC×4, MIC×8, and MIC×16 were prepared. These plates were inoculated with various bacterial suspensions: 10^7, 10^8 or 10^9 UFC/mL. After 24 hours incubation of media at 37° C., CFU were numerated. The mutation frequency corresponded to the ratio of resistant mutants counted on a specific plate to the CFU count of the primary inoculum, expressed as a percentage.

[4] = tested on: S. aureus ATCC 33592 (MRSA); experiment: MIC, microdilution method (9.1); assay type: cell-based, Staphylococcus aureus; conditions: Staphylococcus aureus, read after 18 h, read-out: MIC
Outline: as §1

[5] = tested on: S. aureus SA-1199B; experiment: MIC, microdilution method (9.1); assay type: cell-based, Staphylococcus aureus; conditions: Staphylococcus aureus, SA1199B, 18 h
Outline: as §1

[6] = tested on: S. aureus ATCC 106414 (VISA); experiment: MIC, microdilution method (9.1); assay type: cell-based, Staphylococcus aureus; conditions: Staphylococcus aureus, read after 18 h, read-out: MIC
Outline: as §1

[7] = tested on: S. aureus ATCC 9144; experiment: MIC, microdilution method (9.1); assay type: cell-based, Staphylococcus aureus; conditions: Staphylococcus aureus, ATCC9144, read after 18 h, read-out: MIC
Outline: as §1

[8] = tested on: S. aureus ATCC 25923; experiment: Concentration-killing curves; assay type: cell-based, Staphylococcus aureus; conditions: concentrations up to 128 mg/L, after 18 h of incubation
Experimental: FIGS. 1A and 1B present concentration-killing curves for the indolic compounds 3f and 4 against S. aureus ATCC 25923. The activity is evaluated after 18 h incubation of S. aureus cultures in the presence of the tested compound.
The area between the horizontal full line and the dashed line corresponds to a bacteriostatic effect and the area below the dashed line corresponds to a bactericidal effect (i.e., ≧3 log reduction of the primary bacterial inoculum after 18 h incubation of cultures in the presence of the tested compound).
The method described by Motyl et al. [M. Motyl, K. Dorso, J. Barrett, R. Giacobbe, Basic Microbiological Techniques Used in Antibacterial Drug Discovery. Current Protocols in Pharmacology. UNIT 13A.3. January, 2006] was used.
Killing curves corresponded to the measure of the kinetic of bactericidal activity of indolic compounds over time (time-kill curves) or after 18 h incubation of cultures according to different drug concentrations (concentration-killing curves). […] Bacterial inocula are determined in each tube using the CFU count method at the beginning of the experiments, and then after 18 h for concentration-killing curves, or after 1 h, 2 h, 4 h, 8 h and 18 h for time-kill curves. […]

[9] = tested on: Staphylococcus aureus 1199B (overexpression of the NorA efflux pump); experiment: Efflux pump inhibition assay with sub-inhibitory ciprofloxacin; assay type: cell-based; conditions: S. aureus 1199B
Experimental: The efflux pump inhibition potential of the bis-indolic derivatives was tested using two steps.
The following experimental protocol was used: indolic derivatives (initially solubilised in DMSO at 10 mg/mL) were dispensed in a 96-wells microplate by two fold serial dilutions in Muller-Hinton medium (MH, Bio Rad) using a Biomek 2000 (Beckman) handling robot. 100 μL of the bacterial inoculum (an overnight culture at 37° C. in 5 mL MH diluted 100-fold) was then added in each well. The total volume was 200 μL in each well and the final bacteria concentration 10^6 CFU/mL (CFU: colony forming unit). The highest final indolic derivative concentration was 128 mg/L. Growth was assayed with a microplate reader by monitoring absorption at 620 nm after 1, 2, 5, 7 and 24 h incubation at 37° C. In addition, the plates were read visually after 24 hours incubation. Cultures containing 5 μL DMSO were used as growth controls. In addition, two controls containing a sub-inhibitory or a inhibitory antibiotic concentration for the tested strain were performed. The antibiotics used were ampicillin (0.5 and 32 μg/mL) for E. coli, kanamycin (0.5 and 16 μg/mL) for S. aureus ATCC 25923, ciprofloxacin (4 and 64 mg/L) for S. aureus 1199B, ciprofloxacin (0.5 and 2 mg/L) for S. aureus K2378. All experiments were performed in duplicate.
Efflux pump inhibition assays were then performed against resistant Staphylococcus aureus strains SA 1199B and SA K2378 for bis-indolic derivatives. […] The minimal inhibitory concentration (MIC) of the bis-indolic compound allowing a complete inhibition of the bacterial growth in the presence of ciprofloxacin was determined.

[10] = in the presence of ciprofloxacin 4 mg/L

| Compound | MIC [1] [mg/L] | MIC [2] [mg/L] | mutation frequency [3] | MIC [4] [mg/L] | MIC [5] [mg/L] | MIC [6] [mg/L] | MIC [7] [mg/L] | bactericidal activity (concentration-killing curve) [8] | MIC, mg/L (Ciprofloxacin concentration, mg/L) ([9]; in the presence of ciprofloxacin 1 mg/L) | MIC, mg/L (Ciprofloxacin concentration, mg/L) ([9]; in the presence of ciprofloxacin 2 mg/L) | MIC, mg/L (Ciprofloxacin concentration, mg/L) [9, 10] |
| --- | --- | --- | --- | --- | --- | --- | --- | --- | --- | --- | --- |
| CC(C)(C)OC(=O)NCC(NC(=O)c1c[nH]c2ccc(Br)cc12)c1c[nH]c2ccc(Br)cc12 (centres unmarked) [Compound 3f, tert-Butyl(2-(5-bromo-1H-indol-3-yl)-2-(5-bromo-1H-indolyl-3-carboxamido)ethyl)carbamate] | 32 (≈ 55.5 µM) | > 128 | 2×10^−9 | 2 (≈ 3.47 µM) | 2 (≈ 3.47 µM) | 2 (≈ 3.47 µM) | 1 (≈ 1.74 µM) | no detectable bactericidal activity | – | – | – |
| CC(NC(=O)c1c[nH]c2ccc(Br)cc12)c1c[nH]c2ccc(Br)cc12 (centres unmarked) [Compound 4, 5-Bromo-N-(1-(5-bromo-1H-indol-3-yl)ethyl)-1H-indole-3-carboxamide] | – | – | < 1.5×10^−10 | 2 (≈ 4.34 µM) | 2 (≈ 4.34 µM) | 2 (≈ 4.34 µM) | 2 (≈ 4.34 µM) | no detectable bactericidal activity | – | – | – |
| Cn1cc(C(=O)NC(CNC(=O)OC(C)(C)C)c2c[nH]c3ccc(Br)cc23)c2cc(Br)ccc21 (centres unmarked) [Compound 7, tert-Butyl (2-(5-bromo-1-methyl-1H-indole-3-carboxamido)-2-(5-bromo-1H-indol-3-yl)ethyl) carbamate] | > 128 | > 128 | – | > 128 | > 128 | > 128 | > 128 | – | 4 (1) mg/L | 1 (2) mg/L | 0.25 (4) mg/L |
| NCCCCNC(=O)C(NC(=O)c1c[nH]c2ccc(Br)cc12)c1c[nH]c2ccc(Br)cc12 (centres unmarked) [Compound 16, N-(2-((4-Aminobutyl)amino)-1-(5-bromo-1H-indol-3-yl)-2-oxoethyl)-5-bromo-1H-indole-3-carboxamide] | > 128 | > 128 | – | 8 (≈ 14.3 µM) | – | 8 (≈ 14.3 µM) | 8 (≈ 14.3 µM) | – | – | – | 1 (4) mg/L |
